Source: patent publication EP1247803A2, “Indolinone compounds suitable for modulation of protein kinases” (Sugen, Inc., priority 1996, dated 1998)

Target: T1, EGFR (Homo sapiens, UniProt P00533)
T1 construct: Add 7 ug A431 cell lysate per well (EGFR source); endogenous in cells; host or cells: A431
Experiment: EGFR ELISA assay (in vitro kinase activity, EGFR captured from A431 cell lysate)
Assay type: biochemical
Design: concentration or dose not given beside the values
Outline: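 EGFR from A431 lysate was captured on anti-EGFR antibody-coated plates and preincubated with compounds for 30 min. Autophosphorylation ran 5 min with 3 uM ATP and 5 mM MnCl2 (final), stopped with 20 mM EDTA. Phosphotyrosine was detected by anti-pTyr ELISA with ABTS/H2O2, read at 410 nm.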

T1 sequence (P00533 25-1210): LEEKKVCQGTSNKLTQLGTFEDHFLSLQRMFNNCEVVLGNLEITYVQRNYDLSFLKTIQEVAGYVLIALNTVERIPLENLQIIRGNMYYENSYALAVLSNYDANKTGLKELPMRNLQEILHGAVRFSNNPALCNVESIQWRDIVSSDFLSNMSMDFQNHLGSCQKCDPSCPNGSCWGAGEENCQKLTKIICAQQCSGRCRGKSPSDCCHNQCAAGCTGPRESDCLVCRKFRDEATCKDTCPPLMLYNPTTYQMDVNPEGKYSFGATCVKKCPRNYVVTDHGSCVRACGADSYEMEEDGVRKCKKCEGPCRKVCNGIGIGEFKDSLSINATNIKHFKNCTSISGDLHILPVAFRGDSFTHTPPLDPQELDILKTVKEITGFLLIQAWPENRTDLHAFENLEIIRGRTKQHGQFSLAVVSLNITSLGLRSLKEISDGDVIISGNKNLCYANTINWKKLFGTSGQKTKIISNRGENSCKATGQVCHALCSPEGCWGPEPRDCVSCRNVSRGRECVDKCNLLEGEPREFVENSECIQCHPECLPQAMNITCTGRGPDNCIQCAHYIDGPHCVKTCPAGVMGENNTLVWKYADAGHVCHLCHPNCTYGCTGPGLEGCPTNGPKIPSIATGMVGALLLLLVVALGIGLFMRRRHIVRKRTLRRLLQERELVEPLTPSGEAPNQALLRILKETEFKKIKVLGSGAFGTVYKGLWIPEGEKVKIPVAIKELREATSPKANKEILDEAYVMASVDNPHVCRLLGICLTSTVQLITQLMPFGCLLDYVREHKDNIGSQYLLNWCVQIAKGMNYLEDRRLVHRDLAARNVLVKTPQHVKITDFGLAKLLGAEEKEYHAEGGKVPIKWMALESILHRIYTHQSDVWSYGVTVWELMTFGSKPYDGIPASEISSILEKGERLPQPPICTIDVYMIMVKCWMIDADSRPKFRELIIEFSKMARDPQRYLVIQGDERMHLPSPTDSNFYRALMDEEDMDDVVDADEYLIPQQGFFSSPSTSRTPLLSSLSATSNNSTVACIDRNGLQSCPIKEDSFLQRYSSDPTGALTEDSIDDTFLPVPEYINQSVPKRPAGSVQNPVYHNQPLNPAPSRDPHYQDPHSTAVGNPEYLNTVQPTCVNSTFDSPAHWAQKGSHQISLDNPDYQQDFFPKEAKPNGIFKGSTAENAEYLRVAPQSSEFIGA

In order of falling “Biochem EGFR %Inhibition” value:
1. O=C1Nc2c(Br)cc(Br)cc2C1=Cc1ccc(O)c(O)c1O [10723/A02]  97.8%
2. O=C1Nc2ccc(I)cc2C1=Cc1ccc(O)c(O)c1O [10723/B02]  91.0%
3. O=C1Nc2ccc(S(=O)(=O)Nc3ccc(C(F)(F)F)cc3)cc2C1=Cc1ccc(O)c(O)c1O [10723/E02]  91.0%
4. O=C1Nc2ccc(S(=O)(=O)N3CCOCC3)cc2C1=Cc1ccc(O)c(O)c1O [10723/F02]  70.4%
5. CNS(=O)(=O)c1ccc2c(c1)C(=Cc1ccc(O)c(O)c1O)C(=O)N2 [10723/D02]  63.2%
6. COc1ccc(C=C2C(=O)Nc3ccc(Br)c(C)c32)c(O)c1 [10723/C09]  62.7%
7. CNS(=O)(=O)c1ccc2c(c1)C(=Cc1[nH]c(C)c(Br)c1Br)C(=O)N2 [10717/D11]  59.1%
8. O=C1Nc2ccc(S(=O)(=O)Nc3ccc(C(F)(F)F)cc3)cc2C1=Cc1ccc(O)cc1O [10723/E08]  52.6%
9. CNS(=O)(=O)c1ccc2c(c1)C(=Cc1cc(O)c(O)c(Br)c1)C(=O)N2 [10723/D04]  45.1%
10. Cc1c(Br)ccc2c1C(=Cc1ccc(O)cc1O)C(=O)N2 [10723/C08]  45.0%
11. COc1cccc(C=C2C(=O)Nc3c(Br)cc(Br)cc32)c1O [10723/A03]  38.5%
12. CC(=O)Oc1ccc(C=C2C(=O)Nc3ccc(Br)c(C)c32)cc1OC(C)=O [10723/C05]  35.2%
13. O=C1Nc2c(Br)cc(Br)cc2C1=Cc1cc(O)c(O)c(Br)c1 [10723/A04]  30.8%
14. COc1ccc(C=C2C(=O)Nc3ccc(S(=O)(=O)Nc4ccc(C(F)(F)F)cc4)cc32)c(O)c1 [10723/E09]  29.1%
15. O=C1Nc2ccc(I)cc2C1=Cc1ccccc1Br [10723/B07]  28.8%
16. CC(C)(C)c1cc(C=C2C(=O)Nc3ccc(CCCl)cc32)cc([N+](=O)[O-])c1O [10722/G02]  27.3%
17. CC(=O)Oc1ccc(C=C2C(=O)Nc3c(Br)cc(Br)cc32)cc1OC(C)=O [10723/A05]  26.4%
18. COc1cccc(C=C2C(=O)Nc3ccc(CCCl)cc32)c1O [10723/G03]  18.5%
19. O=C1Nc2ccc(S(=O)(=O)N3CCOCC3)cc2C1=Cc1cc(O)c(O)c(Br)c1 [10723/F04]  17.5%
20. CCOc1ccccc1C=C1C(=O)Nc2ccc(S(=O)(=O)Nc3ccc(C(F)(F)F)cc3)cc21 [10717/E02]  17.2%
21. O=C1Nc2ccc(CCCl)cc2C1=Cc1cc(O)c(O)c(Br)c1 [10723/G04]  16.7%
22. O=C1Nc2ccc(CCCl)cc2C1=Cc1ccccc1Br [10723/G07]  15.5%
23. CNS(=O)(=O)c1ccc2c(c1)C(=Cc1ccccc1Br)C(=O)N2 [10723/D07]  13.4%
24. Cc1cc(C=C2C(=O)Nc3ccc(I)cc32)ccc1O [10723/B06]  11.9%
25. O=C1Nc2ccc(S(=O)(=O)Nc3ccc(C(F)(F)F)cc3)cc2C1=Cc1cccs1 [10717/E03]  11.7%
26. COc1cccc(C=C2C(=O)Nc3ccc(S(=O)(=O)N4CCOCC4)cc32)c1O [10723/F03]  9.3%
27. COc1cccc(C=C2C(=O)Nc3ccc(Br)c(C)c32)c1O [10723/C03]  5.9%
28. O=C1Nc2ccc(I)cc2C1=Cc1cc(O)c(O)c(Br)c1 [10723/B04]  5.1%
29. O=C1Nc2ccc(CCCl)cc2C1=Cc1c(O)cc(O)cc1O [10722/G03]  4.1%
30. O=C1Nc2c(Br)cc(Br)cc2C1=Cc1ccccc1Br [10723/A07]  3.9%
31. CNS(=O)(=O)c1ccc2c(c1)C(=Cc1ccc(OC(C)=O)c(OC(C)=O)c1)C(=O)N2 [10723/D05]  3.7%
32. CCCCN(CCCC)c1ccc(C=C2C(=O)Nc3ccc(CCCl)cc32)cc1 [10722/G10]  3.3%
33. O=C1Nc2ccc(CCCl)cc2C1=Cc1ccc(O)cc1O [10723/G08]  0.1%
34. Cc1c(Br)ccc2c1C(=Cc1cc(C(C)(C)C)cc(C(C)(C)C)c1O)C(=O)N2 [10723/C11]  -1.1%
35. CC(=O)Oc1ccc(C=C2C(=O)Nc3ccc(S(=O)(=O)N4CCOCC4)cc32)cc1OC(C)=O [10723/F05]  -3.8%
36. CNS(=O)(=O)c1ccc2c(c1)C(=Cc1ccc(OC)cc1O)C(=O)N2 [10723/D09]  -3.8%
37. Cc1c(Br)ccc2c1C(=Cc1ccccc1Br)C(=O)N2 [10723/C07]  -4.0%
38. CC(C)(C)c1cc(C=C2C(=O)Nc3c(Br)cc(Br)cc32)c(O)c(C(C)(C)C)c1 [10723/A11]  -4.0%
39. COc1ccc(C=C2C(=O)Nc3c(Br)cc(Br)cc32)c(O)c1 [10723/A09]  -4.5%
40. COc1cccc(C=C2C(=O)Nc3ccc(I)cc32)c1O [10723/B03]  -5.0%
41. O=C1Nc2ccc(CCCl)cc2C1=Cc1ccc(F)cc1F [10722/G06]  -5.2%
42. CNS(=O)(=O)c1ccc2c(c1)C(=Cc1cc(C(C)(C)C)cc(C(C)(C)C)c1O)C(=O)N2 [10723/D11]  -6.2%
43. Cc1c(Br)ccc2c1C(=Cc1cccc(Br)c1)C(=O)N2 [10723/C10]  -7.2%
44. CNS(=O)(=O)c1ccc2c(c1)C(=Cc1ccc(O)c(C)c1)C(=O)N2 [10723/D06]  -7.4%
45. Cc1ccc(C=C2C(=O)Nc3ccc(S(=O)(=O)Nc4ccc(C(F)(F)F)cc4)cc32)s1 [10717/E07]  -7.8%
46. O=C1Nc2ccc(S(=O)(=O)Nc3ccc(C(F)(F)F)cc3)cc2C1=Cc1cccc(Br)c1 [10723/E10]  -7.9%
47. CC(C)(C)c1cc(C=C2C(=O)Nc3ccc(CCCl)cc32)cc(Cl)c1O [10722/G08]  -8.5%
48. O=C1Nc2ccc(CCCl)cc2C1=Cc1ccc(C(=O)O)cc1 [10722/G05]  -9.0%
49. CNS(=O)(=O)c1ccc2c(c1)C(=Cc1cccc(Br)c1)C(=O)N2 [10723/D10]  -9.3%
50. COc1ccc(C=C2C(=O)Nc3ccc(I)cc32)c(O)c1 [10723/B09]  -12.0%
51. CC(=O)Oc1ccc(C=C2C(=O)Nc3ccc(S(=O)(=O)Nc4ccc(C(F)(F)F)cc4)cc32)cc1OC(C)=O [10723/E05]  -15.6%
52. O=C1Nc2c(Br)cc(Br)cc2C1=Cc1cccc(Br)c1 [10723/A10]  -24.8%
53. CC(C)(C)c1cc(C=C2C(=O)Nc3ccc(I)cc32)c(O)c(C(C)(C)C)c1 [10723/B11]  -26.0%
54. O=C1Nc2ccc(S(=O)(=O)Nc3ccc(C(F)(F)F)cc3)cc2C1=Cc1c[nH]c2ccccc12 [10717/E06]  -26.1%
55. Cc1cc(C=C2C(=O)Nc3ccc(CCCl)cc32)ccc1O [10723/G06]  -26.7%
56. Cn1cccc1C=C1C(=O)Nc2ccc(S(=O)(=O)Nc3ccc(C(F)(F)F)cc3)cc21 [10717/E04]  -28.3%
57. O=C1Nc2ccc(CCCl)cc2C1=Cc1ccc(C(F)(F)F)cc1 [10722/G11]  -39.4%
58. CC(C)(C)c1cc(C=C2C(=O)Nc3ccc(S(=O)(=O)Nc4ccc(C(F)(F)F)cc4)cc32)c(O)c(C(C)(C)C)c1 [10723/E11]  -44.6%
